US20180112193A1, “CSF1 THERAPEUTICS” (University Court Of The University Of Edinburgh, priority 2013, published 2018)

B1: CSF-1: unmodified recombinant pig CSF-1 protein, non-fusion comparator (protein)
chain: SENCSHMIGDGHLKVLQQLIDSQMETSCQIAFEFVDQEQLTDPVCYLKKAFLQVQDILDETMRFRDNTPNANVIVQLQELSLRLNSCFTKDYEEQDKACVRTFYETPLQLLEKIKNVFNETKNLLKKDWNIFSKNCNNSFAKCSSQDVVTKPDCN

What was measured:
[1] = system: male C57BI6 mice; assay: Paracetamol intoxication in mice; format: in vivo, mouse; conditions: CSF1 receptor blockade, 180 mg/kg via gavage; Day 3 post injury
Protocol: (§1) Forty-eight male C57BI6 mice aged 10-12 weeks underwent either 2/3 partial hepatectomy, paracetamol intoxication or chronic liver injury plus 2/3 partial hepatectomy. 2/3 partial hepatectomy was performed by ligating the left lobe and left and right median lobes. Paracetamol intoxication was performed by intraperitoneal administration of 350 mg/kg paracetamol dissolved in phosphate buffered saline (PBS). Chronic liver injury plus 2/3 partial hepatectomy was performed by eight weeks intraperitoneal carbon tetrachloride administration 1 mcl/g twice weekly dissolved in olive oil followed by ⅔ partial hepatectomy as described above. […] Control mice (n=8 per injury model) received subcutaneous PBS of appropriate volume. All mice were culled on day 4 following injury (partial hepatectomy or paracetamol intoxication).
(§2) Following a midline laparotomy the liver was excised and weighed. Liver weight to body weight ratio was calculated and expressed as a percentage. Livers were fixed in 4% formalin overnight then transferred to 70% ethanol. Livers were then embedded in paraffin blocks and 4 μm sections cut. Immunohistochemistry for Ki67 (a marker of cellular proliferation expressed throughout the cell cycle) was performed following heat mediated antigen retrieval in Tris/EDTA solution at pH9. Hepatocyte proliferation was quantified by counting ki67 positive hepatocytes in 20 high powered fields (400×) per animal and the mean calculated.
Hepatic CSF1 gene expression was assessed in mice following paracetamol intoxication (350 mg/kg paracetamol IP following overnight fast) at time points up to 4 days, showing peak CSF1 gene expression at day 2 (FIG. 14A).

[2] = system: male C57BI6 mice; assay: 2/3 partial hepatectomy in mice; format: in vivo, mouse
Protocol: as §1, with “All mice were culled on day 4 following injury (partial hepatectomy or paracetamol intoxication).” left out
as §2, with “calculated. […]” for “calculated.”

[3] = system: csf1r-EGFP (MacGreen) mice; assay: Fc-CSF-1 injected subcutaneously into csf1r-EGFP mice on 4 days, sacrificed on the 5th day; format: in vivo, mouse; conditions: 1 mg/kg
Protocol: Mice were injected with Fc-CSF-1 subcutaneously on each of 4 days and sacrificed on the 5th day. The mice were csf1r-EGFP (MacGreen) mice on the C57BI/6 background. Tissue processing and immunohistochemistry were carried out as described in (Alikhan et al Am J. Pathol. 179, 1243-1256, 2011 and Macdonald et al Blood. 116, 3955-3963, 2010). A comparison of the effect of recombinant pig CSF-1 or Fc-CSF-1 on the proliferation of mouse bone marrow cells or the Ba/F3 CS1R reporter cell line using the assay described in Gow et al Cytokine.

[4] = Pig PK (plasma ELISA); format: in vivo; conditions: weaner pigs; 0.5 mg/kg SC
Protocol: Porcine CSF-1 Fc-fusion plasma levels were detected using an in-house developed conventional sandwich ELISA utilizing commercially available antibodies. Capture antibody was Abcam ab9693 (0.3 μg/mL) and detection antibody was Rabbit anti-pig IgG (Fc) biotinylated Alpha Diagnostic 90440 (1:5000 dilution). Standard protein was generated and purified in-house (lot 2/24/11 JAS). Standards were added to each plate along with the samples resulting in an 11 point standard range of 2700 ng/mL to […]. This allowed for quantitation of each sample to a standard curve on every assay plate. Assay detection was done using Pierce High Sensitivity Streptavidin-HRP (1:10,000 dilution) and TMB Microwell Peroxidase Substrate System solution (KPL).
Weaner age barrows (<14 kg) were assigned to three treatment groups receiving a single intravenous (IV) or subcutaneous (SC) dose as follows. Three pigs received 0.5 mg/kg CSF-1 non-fusion dosed SC. Two pigs received 1.2 mg/kg CSF-1:Fc fusion dosed IV. Two pigs received 1.2 mg/kg CSF-1:Fc dosed SC. One ml plasma samples were obtained via the V. jugularis in EDTA anticoagulant tubes and placed on ice until centrifuged. The plasma was transferred to sterile tubes stored at ≤−10° C. until analysis. Serial plasma samples were obtained from each animal at pre-dose and 5 minutes, 30 minutes, 1 hour, 2 hours, 4 hours, 6 hours, 8, hours, 24 hours, 48 hours, and 72 hours post-dose. CSF-1 and CSF-1:Fc fusion protein levels were quantitated in plasma using ELISA assays.

[5] = day 2 following partial hepatectomy, vs controls

Molecule | hepatocyte proliferation [1] | liver weight to body weight ratio [1] | serum ALT (marker of liver injury) [1] | serum ALT (marker of liver injury) ([2]; CSF1 receptor blockade, 180 mg/kg via gavage) | hepatocyte proliferation ([2]; CSF1 receptor blockade, 180 mg/kg via gavage, Day 3) | gene expression of oncostatin M (OSM) [2, 5] | gene expression of pro-regenerative cytokine 116 [2, 5] | urokinase receptor (UR) expression ([2]; following partial hepatectomy, vs controls) | total body weight [3] | peak plasma level [4] | time by which completely cleared from plasma [4] [h]
COc1ccc(COc2ccc(Cc3cnc(N)nc3N)cc2OC)cc1 [GW2580, reference compound] | impaired | reduced | raised | raised | markedly impaired | significant reduction | significant reduction | reduction | – | – | –
B1 | – | – | – | – | – | – | – | – | no effect | around 100 ng/ml | ≤ 20
